Test [1] deals with FAD-linked sulfhydryl oxidase ALR (Homo sapiens, UniProt P55789). Kind of test: inhibitors of human ALR sulfhydryl oxidase, dose response, biochemical, H2O2 detection, luminescence, cherry-pick (AID 493248).
Another test has as its target T1, Protein skinhead-1 (Caenorhabditis elegans, UniProt P34707).
T1 sequence (P34707 whole entry): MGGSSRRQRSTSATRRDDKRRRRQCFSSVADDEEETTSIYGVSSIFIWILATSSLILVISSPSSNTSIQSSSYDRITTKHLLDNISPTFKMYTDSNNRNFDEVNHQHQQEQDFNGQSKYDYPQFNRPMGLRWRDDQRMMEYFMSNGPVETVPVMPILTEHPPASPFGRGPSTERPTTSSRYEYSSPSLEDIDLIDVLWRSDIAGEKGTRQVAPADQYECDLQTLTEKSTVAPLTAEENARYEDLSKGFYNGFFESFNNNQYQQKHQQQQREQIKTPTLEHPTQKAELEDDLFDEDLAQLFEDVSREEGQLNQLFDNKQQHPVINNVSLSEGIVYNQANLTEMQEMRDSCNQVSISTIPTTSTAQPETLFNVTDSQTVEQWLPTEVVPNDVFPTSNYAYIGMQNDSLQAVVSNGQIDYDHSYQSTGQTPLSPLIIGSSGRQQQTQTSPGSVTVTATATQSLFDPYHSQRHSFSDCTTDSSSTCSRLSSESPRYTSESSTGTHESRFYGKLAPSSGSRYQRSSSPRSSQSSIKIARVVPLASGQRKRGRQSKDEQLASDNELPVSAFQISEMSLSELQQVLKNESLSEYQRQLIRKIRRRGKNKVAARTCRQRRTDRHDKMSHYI
The test is classed as functional.

Test [2] addresses T2, RNA-binding protein pos-1 (Caenorhabditis elegans, UniProt G5EF15).
T2 sequence (G5EF15 whole entry): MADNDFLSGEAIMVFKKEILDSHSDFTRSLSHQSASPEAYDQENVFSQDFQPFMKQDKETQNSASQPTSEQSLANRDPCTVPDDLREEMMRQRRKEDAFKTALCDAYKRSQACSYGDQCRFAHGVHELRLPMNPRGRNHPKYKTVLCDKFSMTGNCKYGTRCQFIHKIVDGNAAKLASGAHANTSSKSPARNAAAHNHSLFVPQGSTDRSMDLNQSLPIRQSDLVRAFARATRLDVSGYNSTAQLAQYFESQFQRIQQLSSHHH
The experiment in a line: inhibitors of POS-1/mex-3 RNA binding, dose response, biochemical, fluorescence polarization (AID 1964). (In general: Fluorescence polarisation rises when a labelled molecule tumbles more slowly, as on binding a larger partner.)

The nature of test [3]: cells. It counts as functional, cell-based.
For test [4], the target named is T3, Zinc finger protein mex-5 (Caenorhabditis elegans, UniProt Q9XUB2).
T3 sequence (Q9XUB2 whole entry): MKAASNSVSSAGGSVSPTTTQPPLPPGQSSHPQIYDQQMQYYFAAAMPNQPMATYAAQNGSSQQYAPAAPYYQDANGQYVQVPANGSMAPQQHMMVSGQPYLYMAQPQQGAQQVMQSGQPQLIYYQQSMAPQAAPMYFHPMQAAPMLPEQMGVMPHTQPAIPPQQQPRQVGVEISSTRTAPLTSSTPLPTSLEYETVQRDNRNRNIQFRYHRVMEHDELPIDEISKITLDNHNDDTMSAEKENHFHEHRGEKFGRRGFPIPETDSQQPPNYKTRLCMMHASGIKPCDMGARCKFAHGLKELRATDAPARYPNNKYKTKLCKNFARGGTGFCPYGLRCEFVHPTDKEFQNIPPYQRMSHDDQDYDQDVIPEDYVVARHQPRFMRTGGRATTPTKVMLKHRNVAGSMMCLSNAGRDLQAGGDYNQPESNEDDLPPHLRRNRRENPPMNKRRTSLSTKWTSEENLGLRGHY
Kind of test: MEX-5/TCR-2 RNA interaction inhibitors, dose response, biochemical, C. elegans, fluorescence polarization (AID 1960).

Test [5] can be described thus: cells. The test is classed as functional, cell-based. The source holds these as a separate data set.
For test [6], the target named is T4, Microphthalmia-associated transcription factor (Homo sapiens, UniProt O75030).
T4 sequence (O75030 whole entry): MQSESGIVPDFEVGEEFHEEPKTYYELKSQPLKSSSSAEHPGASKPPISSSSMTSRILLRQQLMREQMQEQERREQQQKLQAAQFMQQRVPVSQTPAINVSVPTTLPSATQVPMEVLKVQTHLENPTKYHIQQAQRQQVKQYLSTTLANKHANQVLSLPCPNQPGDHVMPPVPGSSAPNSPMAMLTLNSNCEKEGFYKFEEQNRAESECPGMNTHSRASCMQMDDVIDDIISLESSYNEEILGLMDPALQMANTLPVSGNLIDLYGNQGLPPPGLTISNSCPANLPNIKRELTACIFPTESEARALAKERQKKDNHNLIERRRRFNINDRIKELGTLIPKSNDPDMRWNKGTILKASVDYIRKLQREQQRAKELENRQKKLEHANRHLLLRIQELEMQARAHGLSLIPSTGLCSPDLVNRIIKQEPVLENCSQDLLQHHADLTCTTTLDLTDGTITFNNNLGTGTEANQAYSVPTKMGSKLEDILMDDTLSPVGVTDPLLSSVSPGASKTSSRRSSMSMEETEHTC
The experiment in a line: TRPM1 promoter luciferase signal decrease, dose response, MITF inhibitor project, cell-based, SK-MEL-5, cherry-picked, set 3 (AID 493073).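 Also: SK-MEL-5 melanoma cells with luciferase driven by the MITF target TRPM1 promoter.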 The test is classed as functional.

Test [7] deals with Streptococcus sp. 'group A'. Kind of test: growth inhibition of control SK(-) GAS strain, dose response, counter-screen for streptokinase expression inhibitor project, luminescence, kanamycin, BacTiterGlo, confirmation (AID 1900). The test is classed as functional, organism-based. Background: The purpose of a counterscreen is to sort out artefacts and off-target activity.
In a further test the test system is Streptococcus. The experiment in a line: Group A Streptococcus viability loss, dose response, counter-screen for streptokinase expression inhibitor project, luminescence, BacTiterGlo (AID 1915).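 Also: potency for reduction of bacterial viability or growth.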 It counts as functional, organism-based.
A further test has as its system INS1. Kind of test: beta cell apoptosis inhibitors, cytokine rescue, dose response, luminescence, retest (AID 449756).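 Also: cell death triggered by IL-1 beta plus TNF-alpha plus IFN-gamma mixture; protective hits raise ATP signal compared with cytokine alone wells.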 The test is classed as functional, cell-based. The settings on record: Rattus norvegicus.

The values that follow come from ChEMBL document CHEMBL1201862, “PubChem BioAssay data set” (2004).

Active and inactive are the calls of the source. Rule as the data show it, for most assays here: actives have a measured EC50 and inactives only a lower limit. Some results are limits rather than exact numbers.

Sequence of FAD-linked sulfhydryl oxidase ALR (P55789 whole entry): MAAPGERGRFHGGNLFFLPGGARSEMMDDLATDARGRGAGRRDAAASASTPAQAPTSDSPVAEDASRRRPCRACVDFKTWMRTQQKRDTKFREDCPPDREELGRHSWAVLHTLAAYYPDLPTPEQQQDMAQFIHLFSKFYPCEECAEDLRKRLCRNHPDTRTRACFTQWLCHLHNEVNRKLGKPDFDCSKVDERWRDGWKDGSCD

The term AC50 denotes the midpoint of the concentration-response curve, whichever way the signal moves. For the compound `Oc1ccc(Br)cc1-c1cc(-c2ccco2)[nH]n1`, in test [1], the AC50 was 3.51 µM (active). As usually defined, the IC50 is the concentration that inhibits the measured activity by half. With `c1csc(-c2ccc3ccccc3n2)c1`, the IC50 at Protein skinhead-1 is 35.1 µM (active). By EC50 is commonly meant the concentration giving half of the maximal effect. On to `CC1(OC(=O)c2cccs2)C(=O)C=C2C=C(C3CC3)OC=C2C1=O` (stereo not given), for which the EC50 in test [2] was 42.3 µM (active); in “cells [3]” it was > 350 µM (not active); in [4], 33 µM (active); in “cells [5]” it was > 350 µM (not active). As for `Cc1cc(NC(=O)C2CC(=O)N(c3cccc(C)c3C)C2)no1` (stereo not given), the EC50 in “cells [3]” and in the test “cells [5]” was > 350 µM (not active) in each case. As for `O=C(NCCCN1CCOCC1)c1cc(-c2ccccc2F)no1`, the half-maximal effective concentration (EC50) in “cells [3]” is 113 µM (active); in “cells [5]” it was > 350 µM (not active).

For the compound `Fc1ccc(-c2csc(-c3ccncc3)n2)cc1`, the IC50 at Protein skinhead-1 is 10.5 µM (active). Take `Cc1c(C(=O)N2CCCCC2)c(S(=O)(=O)NCCc2ccc(Cl)cc2)c(C)n1C`: the EC50 in the test “cells [3]” and in the test “cells [5]” was > 350 µM (not active) throughout.

Take `Cc1ccc(C)c(SCC(=O)OCC(=O)N2CC(C)OC(C)C2)c1` (stereo not given): the EC50 in the test “cells [3]” and in “cells [5]” was > 350 µM (not active) in each case.

Consider `O=[N+]([O-])c1ccc(CSC2=NCCN2)cc1`, for which the AC50 in test [1] is 0.04 µM (active).

Consider `COc1ccc(C(=O)Nc2cccc(OC(=O)c3ccc(C)c(C)c3)c2)cc1`, for which the IC50 at Protein skinhead-1 was > 100 µM (inactive).

In the case of `Cc1cc(Nc2ccccc2)cc(=O)n1C`, the EC50 in “cells [3]” and in “cells [5]” was > 350 µM (not active) in each case. `Clc1ccc(SCc2cc(-c3ccc(Cl)cc3)on2)cc1`: on Protein skinhead-1, the IC50 is > 100 µM (inactive). In the case of `Fc1ccc(CSc2nnc(-c3cnccn3)n2Cc2ccco2)cc1`, the AC50 in test [1] is 3.85 µM (active). Consider `CCC(C)C(=O)N1CCc2cc(-c3csc(N)n3)ccc21` (stereo not given), for which, in test [1], the AC50 is 0.3 µM (active).

For `CCc1nc2oc3ccccc3c(=O)c2c(=O)n1-c1ccccc1`, the IC50 on Protein skinhead-1 was > 100 µM (inactive).

Take `O=C(O)c1cccc(NC(=O)c2cccc(NC(=O)C3CCCO3)c2)c1` (stereo not given): the concentration at half-maximal activity (AC50) in [6] is 21.2 µM (active).

Take `CCc1ccc(C(=O)Nc2ccc3nc(C)ccc3c2)cc1`: on Protein skinhead-1, the 50% inhibitory concentration (IC50) is 10.1 µM (active). With `O=C(NCc1ccc(Cl)cc1)C1CCN(c2nnc(N3CCCC3=O)s2)CC1`, at Protein skinhead-1, the IC50 was > 100 µM (inactive).

Take `O=C(O)C(Oc1ccc2ccccc2c1)c1ccccc1` (stereo not given): the IC50 at Protein skinhead-1 was > 100 µM (inactive). As for `Cc1cc(-c2nnc(S)n2/N=C/C(Cl)=C/c2ccccc2)[nH]n1`, in test [1], the AC50 is 0.109 µM (active). `Cc1cccc(/C=N/NC(=O)c2ccc3c(c2)OCCO3)c1O`: the EC50 in test [7] was 3.05 µM (active); in the test “cells [3]”, 66.1 µM (active); in “cells [5]” it was 6.39 µM (active); in the test with Streptococcus, 6.82 µM (active). The AC50 with INS1 was 1.8 µM (active). As to `C/C(=N\NC(=O)CCCNc1cccc(C)c1)c1ccncc1`, in test [1], the AC50 was 2.59 µM (active).

Regarding `C/C(=N\Nc1ccc(Cl)cc1)c1ccccn1`, the AC50 in [1] is 1.03 µM (active).
